The source of these data is US20260315492A1, “5,6-FUSED BICYCLIC AMIDES AND COMPOSITIONS FOR USE AS 15-PROSTAGLANDIN DEHYDROGENASE MODULATORS” (AMGEN INC., priority 2023, published 2026).

For the experiment, the target named is T1, human recombinant 15-PGDH (Homo sapiens, UniProt P15428).
T1 sequence (P15428 1-266): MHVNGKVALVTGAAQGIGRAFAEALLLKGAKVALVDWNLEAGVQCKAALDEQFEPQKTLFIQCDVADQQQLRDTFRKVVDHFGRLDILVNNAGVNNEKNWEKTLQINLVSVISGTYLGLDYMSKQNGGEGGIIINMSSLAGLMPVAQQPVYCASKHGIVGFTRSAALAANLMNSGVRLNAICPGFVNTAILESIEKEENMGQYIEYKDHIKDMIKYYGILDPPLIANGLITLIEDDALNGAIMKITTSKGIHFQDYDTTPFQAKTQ
As to the kind of experiment: Inhibition of recombinant 15-PGDH enzymatic activity (NADH quantification after addition of PGE2 and NAD+). Format: biochemical. The settings on record: recombinant 15-PGDH; 15 min pre-incubation, 60-minute reaction, room temperature, pH 7.5; PGE2 and NAD+; read-out: PGDH-Lumi IC50. The procedure:
The compound dose-response of its inhibition of 15-PGDH activity was determined in human recombinant 15-PGDH enzymatical assays. These assays measured 15-PGDH enzymatic activity by quantifying the amount of NADH produced during a 60-minute reaction initiated by the addition of PGE2 and NAD+. Under the conditions of these experiments, the increase of NADH signal upon oxidation of PGE2 and reduction of NAD+ was linearly proportional to 15-PGDH enzymatic activity. The recombinant human, mouse, rat and dog 15-PGDH enzymatic assays were performed in a 25 μL volume of reaction buffer containing 50 mM Tris, pH 7.5, 0.01% Tween-20 and 100 μM DTT in a 384-well microtiter plate. In concentration-response experiments with tested compounds, 22 concentrations from 2-fold serial dilutions in DMSO were pre-incubated with 15-PGDH for 15 minutes at room temperature. Then, PGE2 and ß-NAD+ were added to initiate the 15-PGDH reaction. After 60 minutes at room temperature, the reaction was quenched and NADH signal was measured using a microtiter plate reader.
The following data (Table 11-1) provides the IC50 of each compound for inhibiting enzymatic activity of recombinant 15-PGDH in the assay described above.
As for `C[C@@H]1COCCN1C(=O)c1cc2ccc(-c3cnc4ncn(C)c4c3)nc2s1` [Compound B63R, (6-(1-methyl-1H-imidazo[4,5-b]pyridin-6-yl)thieno[2,3-b]pyridin-2-yl)((3R)-3-methyl-4-morpholinyl)methanone], the IC50 (commonly the point on the concentration scale where inhibition reaches its midpoint) worked out at 5.17 nM.

Consider `CC1CN(C(=O)c2cc3ccc(-c4cnc5nn(C)cc5c4)nc3s2)CCO1` (centres unmarked) [Compound B31], for which the IC50 came to 1.34 nM.

As for `Cn1cnc(-c2ccc3cc(C(=O)N4CCOCC4)sc3n2)cc1=O` [Compound B39, 3-methyl-6-(2-(4-morpholinylcarbonyl)thieno[2,3-b]pyridin-6-yl)-4(3H)-pyrimidinone], the 50% inhibitory concentration (IC50) came out at 128 nM.

Turning to `Cc1c(C(=O)N2CCC(F)(F)CC2)sc2cc(-c3cnc4nn(C)cc4c3)ccc12` [Compound A3, (4,4-difluoro-1-piperidinyl)(3-methyl-6-(2-methyl-2H-pyrazolo[3,4-b]pyridin-5-yl)-1-benzothiophen-2-yl)methanone], the IC50 came to 11.7 nM.

With `Cn1cc2cc(-c3ccc4cc(C(=O)N5C[C@H]6CC[C@@H]5CO6)sc4n3)cnc2n1` (stereo in doubt) [Compound B52, (6-(2-methyl-2H-pyrazolo[3,4-b]pyridin-5-yl)thieno[2,3-b]pyridin-2-yl)(2-oxa-5-azabicyclo[2.2.2]octan-5-yl)methanone], the IC50 amounted to 1.75 nM.

On to `C[C@@H]1COCCN1C(=O)c1cc2c(C3CC3)cc(-c3cnc4nn(C)cc4c3)nc2s1` (single isomer, unassigned) [Compound B17R], for which the 50% inhibitory concentration (IC50) was 3.11 nM.

As for `Cn1cc2cc(-c3ccc4sc(C(=O)N5CCCCC5)c(N)c4n3)cnc2n1` [Compound C45, (3-amino-5-(2-methyl-2H-pyrazolo[3,4-b]pyridin-5-yl)thieno[3,2-b]pyridin-2-yl)(1-piperidinyl)methanone], the IC50 came to 0.679 nM.

Take `C[C@@H]1COCCN1C(=O)c1cc2ccc(-c3cnc4nn(C)nc4c3)nc2s1` [Compound B43R, ((3R)-3-methyl-4-morpholinyl)(6-(2-methyl-2H-[1,2,3]triazolo[4,5-b]pyridin-6-yl)thieno[2,3-b]pyridin-2-yl)methanone]: the IC50 came out at 40.3 nM.

`Cn1cc2cc(-c3ccc4sc(C(=O)N5CCCC(F)(F)C5)c(N)c4n3)cnc2n1` [Compound C47, (3-amino-5-(2-methyl-2H-pyrazolo[3,4-b]pyridin-5-yl)thieno[3,2-b]pyridin-2-yl)(3,3-difluoro-1-piperidinyl)methanone]: the half-maximal inhibitory concentration (IC50) worked out at 1.63 nM.

Consider `C[C@H]1COCCN1C(=O)c1cc2ccc(-c3cnc4nn(C)nc4c3)nc2s1` [Compound B43S, ((3S)-3-methyl-4-morpholinyl)(6-(2-methyl-2H-[1,2,3]triazolo[4,5-b]pyridin-6-yl)thieno[2,3-b]pyridin-2-yl)methanone], for which the half-maximal inhibitory concentration (IC50) was 23.4 nM.

For the molecule `CC(C)c1cc[n+]([O-])c2sc(C(=O)N3CCCCC3)cc12` [Compound B7, (7-oxido-4-(2-propanyl)thieno[2,3-b]pyridin-2-yl)(1-piperidinyl)methanone], the half-inhibitory concentration (IC50) is more than 100000 nM.

Consider `Cn1nccc1-c1nc(-c2cnc(=O)[nH]c2)nc2sc(C(=O)N3CCC(F)(F)CC3)cc12` [Compound C38, 5-(6-((4,4-difluoro-1-piperidinyl)carbonyl)-4-(1-methyl-1H-pyrazol-5-yl)thieno[2,3-d]pyrimidin-2-yl)-2(1H)-pyrimidinone], for which the 50% inhibitory concentration (IC50) turned out to be 16 nM.

For `C[C@H]1COCCN1C(=O)c1cc2ccc(-c3cnc4ncn(C)c4c3)nc2s1` [Compound B63S, (6-(1-methyl-1H-imidazo[4,5-b]pyridin-6-yl)thieno[2,3-b]pyridin-2-yl)((3S)-3-methyl-4-morpholinyl)methanone], the IC50 worked out at 5.68 nM.

On to `C[C@H]1COCCN1C(=O)c1cc2c(C3CC3)cc(-c3cnc4nn(C)cc4c3)nc2s1` [Compound B17S, (4-cyclopropyl-6-(2-methyl-2H-pyrazolo[3,4-b]pyridin-5-yl)thieno[2,3-b]pyridin-2-yl)((3S)-3-methyl-4-morpholinyl)methanone], for which the IC50 was determined as 1.17 nM.
